Laboratory results: the supplement of paper PMC10307832

The cell lines below were run with CC1=C(C(=NN1)C)CC2=C(C3=C(S2)N(C(=O)N(C3=O)C)CC(C)C)C(=O)N4C[C@@H](CO4)O + CC(C)C[C@H](NC(=O)[C@H](Cc1ccccc1)NC(=O)c1cnccn1)B(O)O [Bortezomib] (partner 0.002 µM) (assay: relative viability (nuclei count vs DMSO), 5 days (fraction); higher = more cells survive). Details: first compound 0.25 µM.
Method in brief: (§1)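 Values are medians from duplicate plates. Each reflects relative viability, defined as the nuclei count of treated wells over that of vehicle wells. Lung cancer cell lines in 1536-well plates were pin-tool dosed one day after seeding with one drug alone or with a fixed anchor-drug dose plus five library-drug doses (not always all listed) in √10 steps, then fixed, stained and imaged at 4× after 5 days.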
With NCI-H1355 the relative viability was 1.23.

The cell lines below were run with Cc1ccccc1C(C(=O)NC1CCCCC1)N(C(=O)Cn1ccnc1C)c1cccc(F)c1 [IDH-C35] + C[C@@H](Oc1cc(-c2cnn(C3CCNCC3)c2)cnc1N)c1c(Cl)ccc(F)c1Cl [Crizotinib] (partner 1 µM) in the same assay as above. Details: first compound 0.08 µM.
Method in brief: as §1
Work on H3255 yielded a relative viability of 0.898. Cell Line COR-L23 has a relative viability of 0.634. COR-L 105 showed a relative viability of 0.745. With LOU-NH91 the relative viability was 0.741. In the case of ChaGo-K-1, the relative viability is reported as 1.16. In the case of NCI-H2405, the relative viability is reported as 0.837. Work on HOP-62 yielded a relative viability of 0.839. HCC-44 was tested, and the relative viability was 0.848. For LU99A, the relative viability was 0.585. With BEN the relative viability was 0.932. With HARA the relative viability was 1.02. With HCC-78 the relative viability was 0.343. NCI-H322M was tested, and the relative viability was 0.863. In the case of LCLC-97TM1, the relative viability is reported as 0.366. With NCI-H2009 the relative viability was 0.992. Cell Line A-427 has a relative viability of 0.907. NCI-H441 gave a relative viability of 0.964. For NCI-H661, the relative viability was 0.969. In the case of NCI-H1734, the relative viability is reported as 0.69. NCI-H460 gave a relative viability of 1. Cell Line NCI-H2347 has a relative viability of 0.71. With SK-LU-1 the relative viability was 0.881. With 201T the relative viability was 1.03. For NCI-H1915, the relative viability was 0.855. Work on HCC-827 yielded a relative viability of 0.911. LXF-289 gave a relative viability of 0.794. For NCI-H23, the relative viability was 0.488. In the case of NCI-H647, the relative viability is reported as 0.876. Work on NCI-H1651 yielded a relative viability of 0.848. With EPLC-272H the relative viability was 1.09. Work on NCI-H1792 yielded a relative viability of 0.972. Work on NCI-H1355 yielded a relative viability of 1.08.

Same assay, conditions: first compound 0.253 µM
H3255 was tested, and the relative viability was 0.9. In the case of COR-L23, the relative viability is reported as 0.626. With COR-L 105 the relative viability was 0.942. With LOU-NH91 the relative viability was 0.754. Cell Line ChaGo-K-1 has a relative viability of 1.05. NCI-H2405 was tested, and the relative viability was 0.841. HOP-62 showed a relative viability of 1.04. HCC-44 was tested, and the relative viability was 0.794. Work on LU99A yielded a relative viability of 0.612. In the case of BEN, the relative viability is reported as 0.738. HARA showed a relative viability of 0.986. Cell Line HCC-78 has a relative viability of 0.349. NCI-H322M showed a relative viability of 0.961. Cell Line LCLC-97TM1 has a relative viability of 0.281. NCI-H2009 showed a relative viability of 1. In the case of A-427, the relative viability is reported as 0.983. NCI-H441 gave a relative viability of 0.673. Work on NCI-H661 yielded a relative viability of 0.973. NCI-H1734 was tested, and the relative viability was 0.729. For NCI-H460, the relative viability was 0.989. In the case of NCI-H2347, the relative viability is reported as 0.695. In the case of SK-LU-1, the relative viability is reported as 0.797. Work on 201T yielded a relative viability of 1.02. NCI-H1915 showed a relative viability of 0.865. For HCC-827, the relative viability was 0.956. Work on LXF-289 yielded a relative viability of 0.774. NCI-H23 was tested, and the relative viability was 0.654. NCI-H647 showed a relative viability of 1.02. Cell Line NCI-H1651 has a relative viability of 0.874. Cell Line EPLC-272H has a relative viability of 0.805. In the case of NCI-H1792, the relative viability is reported as 0.949. For NCI-H1355, the relative viability was 1.03.

Same assay, conditions: first compound 0.8 µM
In the case of H3255, the relative viability is reported as 0.897. For COR-L23, the relative viability was 0.619. In the case of COR-L 105, the relative viability is reported as 0.688. In the case of LOU-NH91, the relative viability is reported as 0.722. For ChaGo-K-1, the relative viability was 1.09. For NCI-H2405, the relative viability was 0.852. For HOP-62, the relative viability was 0.832. In the case of HCC-44, the relative viability is reported as 0.719. In the case of LU99A, the relative viability is reported as 0.587. In the case of BEN, the relative viability is reported as 0.803. HARA showed a relative viability of 0.997. HCC-78 was tested, and the relative viability was 0.342. Cell Line NCI-H322M has a relative viability of 0.91. Work on LCLC-97TM1 yielded a relative viability of 0.291. With NCI-H2009 the relative viability was 1.08. In the case of A-427, the relative viability is reported as 0.849. Work on NCI-H441 yielded a relative viability of 0.649. In the case of NCI-H1734, the relative viability is reported as 0.623. In the case of NCI-H460, the relative viability is reported as 0.782. Cell Line NCI-H2347 has a relative viability of 0.713. In the case of SK-LU-1, the relative viability is reported as 0.948. In the case of 201T, the relative viability is reported as 0.982. With NCI-H1915 the relative viability was 0.805. HCC-827 gave a relative viability of 0.911. LXF-289 gave a relative viability of 0.771. NCI-H23 gave a relative viability of 0.488. NCI-H647 gave a relative viability of 1.05. Cell Line NCI-H1651 has a relative viability of 0.874. For EPLC-272H, the relative viability was 0.855. NCI-H1792 showed a relative viability of 0.94. With NCI-H1355 the relative viability was 1.03.

Same assay, conditions: first compound 2.53 µM
Work on H3255 yielded a relative viability of 0.773. COR-L23 gave a relative viability of 0.673. With COR-L 105 the relative viability was 0.72. With LOU-NH91 the relative viability was 0.743. Work on ChaGo-K-1 yielded a relative viability of 0.923. NCI-H2405 was tested, and the relative viability was 0.829. In the case of HCC-44, the relative viability is reported as 0.801. LU99A showed a relative viability of 0.578. With BEN the relative viability was 0.942. In the case of HARA, the relative viability is reported as 1.09. Work on HCC-78 yielded a relative viability of 0.322. Work on NCI-H322M yielded a relative viability of 0.931. For NCI-H2009, the relative viability was 0.971. Cell Line A-427 has a relative viability of 0.891. NCI-H441 gave a relative viability of 0.703. In the case of NCI-H661, the relative viability is reported as 0.975. NCI-H1734 showed a relative viability of 0.638. NCI-H460 was tested, and the relative viability was 0.814. Work on NCI-H2347 yielded a relative viability of 0.762. SK-LU-1 gave a relative viability of 0.904. 201T was tested, and the relative viability was 0.999. NCI-H1915 gave a relative viability of 0.904. For HCC-827, the relative viability was 0.876. Cell Line LXF-289 has a relative viability of 0.798. With NCI-H23 the relative viability was 0.507. NCI-H647 gave a relative viability of 1.07. NCI-H1651 showed a relative viability of 0.919. In the case of NCI-H1792, the relative viability is reported as 1.01. In the case of NCI-H1355, the relative viability is reported as 1.01.

Same assay, conditions: first compound 8 µM
H3255 gave a relative viability of 0.848. COR-L23 was tested, and the relative viability was 0.667. Work on COR-L 105 yielded a relative viability of 0.921. In the case of LOU-NH91, the relative viability is reported as 0.751. In the case of ChaGo-K-1, the relative viability is reported as 1.09. NCI-H2405 gave a relative viability of 0.797. For HOP-62, the relative viability was 0.925. HCC-44 was tested, and the relative viability was 0.733. Work on LU99A yielded a relative viability of 0.539. BEN was tested, and the relative viability was 0.861. For HARA, the relative viability was 1.05. HCC-78 was tested, and the relative viability was 0.303. Cell Line NCI-H322M has a relative viability of 1.02. LCLC-97TM1 showed a relative viability of 0.293. NCI-H2009 showed a relative viability of 0.995. A-427 was tested, and the relative viability was 0.791. With NCI-H441 the relative viability was 0.749. With NCI-H661 the relative viability was 0.971. With NCI-H1734 the relative viability was 0.729. NCI-H460 showed a relative viability of 0.955. With NCI-H2347 the relative viability was 0.619. With SK-LU-1 the relative viability was 0.881. 201T gave a relative viability of 0.997. In the case of NCI-H1915, the relative viability is reported as 0.917. Work on HCC-827 yielded a relative viability of 0.957. In the case of LXF-289, the relative viability is reported as 0.798. NCI-H23 was tested, and the relative viability was 0.432. NCI-H647 showed a relative viability of 0.98. For NCI-H1651, the relative viability was 0.925. EPLC-272H was tested, and the relative viability was 1.03. NCI-H1792 gave a relative viability of 0.971. For NCI-H1355, the relative viability was 1.07.

The cell lines below were run with CC1=C(C(=NN1)C)CC2=C(C3=C(S2)N(C(=O)N(C3=O)C)CC(C)C)C(=O)N4C[C@@H](CO4)O + CC(=O)Nc1cccc(-n2c(=O)n(C3CC3)c(=O)c3c(Nc4ccc(I)cc4F)n(C)c(=O)c(C)c32)c1 [Trametinib] (partner 0.02 µM) in the same assay as above. Details: first compound 0.0025 µM.
Method in brief: as §1
H3255 gave a relative viability of 0.602. COR-L23 was tested, and the relative viability was 0.662.
